One series relates to IOBA-NHC cells. Conditions: cited from earlier work.
For series [1], the system named is HSV-1 Cgal. Briefly: HSV-1 Cgal virus yield reduction in nervous cell lines (plaque assay). Type of series: cell-based, herpes simplex virus type 1. Particulars: regardless of the virus strain used (KOS wt or Cgal); PC-12, Neuro-2a, SH-SY5Y cells; 10 μM compound 1 / 5 μM compound 2, 24 h. Here is the method:
(§1) Cells grown in 24-well plates were infected with HSV-1 KOS and, after virus adsorption, treated or not with the compounds. After 24 h of incubation at 37°C, supernatants were collected and titrated in Vero cells. Briefly, Vero cells grown in 24-well plates were infected with serial 10-fold dilutions of viral yields and incubated for 1 h at 37°C. Residual inocula were replaced by maintenance medium with 0.7% of methylcellulose. After 72 h of incubation at 37°C, cells were fixed with formaldehyde 10% and stained with Crystal Violet, and plaque forming units were counted.
(§2) Cells grown in coverslips inside 24-well plates were infected with HSV-1 Cgal. After adsorption, inocula were eliminated and cells were covered with MEM 1.5%. At 24 h after infection (p.i.), supernatants were harvested and stored at −70°C for titration, and cells were stained in situ for β-gal. Coverslips were mounted, observed with an Olympus BX61 microscope, and photographed.
Figure 3 Effect of compounds 1 and 2 on HSV-1 virus yield reduction. (a) PC-12, (b) Neuro-2a, and (c) SH-SY5Y cells were infected with HSV-1 KOS (black bars) and HSV-1 Cgal (grey bars) and incubated for 1 h at 37°C. Then, cells were covered with DMEM/F12 2% or media containing 10 μM of compound 1 and 5 μM of compound 2. After 24 h supernatants were harvested and viral titres were determined by plaque assay. […]

Series [2] can be described thus: MTT cytotoxicity assay in SH-SY5Y cells. Type of series: cell-based. Particulars: human, SH-SY5Y cells (confluent nongrowing monolayers), 24 h incubation at 37°C. Here is the method: (§3) Cell viability in the presence of different concentration of the compound was determined using the MTT assay. The absorbance of each well was measured on Eurogenetics MPR-A 4i microplate reader using a test wavelength of 570 nm and a reference wavelength of 630 nm. The CC50 was defined as the concentration of the compound that caused a 50% reduction in absorbance.
(§4) Fifty percent cytotoxic concentration (CC50) for PC-12, Neuro-2a, and SH-SY5Y cells was determined. Compounds 1 and 2 were added to confluent nongrowing cells in concentrations ranging from 1 to 144 μM and from 1 to 129 μM, respectively, and, after 24 h incubation at 37°C, a MTT colorimetric assay was performed.
(§5) Figure 2 Cytotoxic effect of compounds 1 and 2 in three nervous cell lines. (a) PC-12, (b) Neuro-2a, and (c) SH-SY5Y cells monolayers were incubated in the presence of different concentrations of compounds 1 and 2. After 24 h of incubation at 37°C cell viability was determined by the MTT assay. The CC50 was defined as the concentration of the compound that caused a 50% reduction in cell viability. Data are mean values from four separate experiments.
Background: Tetrazolium dyes change colour on reduction, which living cells bring about.

Series [3] in a line: MTT cytotoxicity assay in PC-12 cells. Type of series: cell-based. Particulars: rat, PC-12 cells (confluent nongrowing monolayers), 24 h incubation at 37°C. Here is the method:
as §3, §4, §5

The subject of series [4] is glucocorticoid receptors (GR). The arrangement: method as in Michelini, personal communication. Conditions: ref Michelini, personal communication; cited from earlier work.
Series [5] concerns IL-6. More on the design: method as in earlier work. Conditions: HSV-1-infected epithelial cells (IOBA-NHC and HCLE); Michelini, personal communication; cited from earlier work.
A further series relates to TNF-α. The arrangement: method as in earlier work. Particulars: compound 1: HSV-1-infected epithelial cells; compound 2: IOBA-NHC cells; Michelini, personal communication; cited from earlier work.
In series [6] the test system is HSV-1 Cgal. Briefly: HSV-1 Cgal propagation, in situ beta-gal staining. The format is cell-based, herpes simplex virus type 1. Conditions: PC-12, Neuro-2a, SH-SY5Y cells, m.o.i. 1, 10 μM of 1 / 5 μM of 2, 24 h. Here is the method:
as §2
We have previously reported that compounds 1 and 2 inhibit HSV-1 propagation in IOBA-NHC cells. To investigate the effect of both compounds on viral propagation, PC-12, Neuro-2a, and SH-SY5Y cells grown in coverslips inside 24-well plates were infected with HSV-1 Cgal (m.o.i. = 1) and, then, treated with control media, 10 μM of 1 and 5 μM of 2. After 24 h incubation at 37°C, cells were stained in situ for β-gal. […] Therefore, both compounds would prevent HSV-1 Cgal spreading in all nervous cell lines assayed when added after infection.
Figure 4 Effect of compounds 1 and 2 on HSV-1 propagation. (a) PC-12, (b) Neuro-2a, and (c) SH-SY5Y cells monolayers grown in coverslips inside 24-well plates were infected with HSV-1 Cgal and incubated for 1 h at 37°C. Then, cells were covered with DMEM/F12 2% or media containing 10 μM of compound 1 and 5 μM of compound 2. After incubation for 24 h, cells were stained in situ for β-gal. […]

The test system of series [7] is IL-6. Briefly: IL-6 secretion in HSV-1-infected Neuro-2a cells (ELISA). Type of series: cell-based, Murine. Conditions: HSV-1 KOS-infected Neuro-2a cells, 10 μM compound 1 / 5 μM compound 2, 24 h; for IL-6 levels, reduction: vs untreated infected cells; for IL-6 levels: infected control 659.6 ± 14.8. Here is the method: (§6) Neuro-2a cells grown in 24-well plates were infected with HSV-1 at a multiplicity of infection (m.o.i.) of 1. After 24 h of incubation at 37°C cells supernatants were harvested and cytokines were quantified. Murine IL-6 and IFN-gamma were quantified by commercial ELISA sets (BD OptEIATM, Becton Dickinson, USA) according to manufacturer instructions.
(§7) On the other hand, compound 2 increases IL-6 levels in human epithelial cells infected with HSV-1 [12]. […] For that purpose, we used those supernatants in which the antiviral effect of compounds 1 and 2 was found (Figure 3(b)). IL-6 and IFN-γ secretion reached 659.6 ± 14.8 pg/mL and 154.7 ± 7.2 pg/mL in HSV-1 infected control cells, respectively. […] IFN-γ levels dropped to 72.3 ± 4.9 pg/mL (P < 0.006) (53.3%) and to 53 ± 4.2 pg/mL (P < 0.001) (65.7%) with respect to untreated infected cells after treatment with 1 and 2. Thus, compounds 1 and 2 might display an anti-inflammatory activity in HSV-1-infected Neuro-2a cells.
A general note: An ELISA detects its analyte on a solid surface through an enzyme-linked reagent.

A further series relates to IFN-γ. Briefly: IFN-gamma secretion in HSV-1-infected Neuro-2a cells (ELISA). Type of series: cell-based, Murine. Conditions: HSV-1 KOS-infected Neuro-2a cells, 10 μM compound 1 / 5 μM compound 2, 24 h; for IFN-γ levels: infected control 154.7 ± 7.2. Here is the method: as §6, §7
Series [8] is described as follows: MTT cytotoxicity assay in Neuro-2a cells. Type of series: cell-based, Murine. Particulars: mouse, Neuro-2a cells (confluent nongrowing monolayers), 24 h incubation at 37°C. On the procedure:
as §3, §4, §5

Series [9] deals with glucocorticoid receptors (GR). The arrangement: method as in Michelini, personal communication. Conditions: ref Michelini, personal communication; cited from earlier work. This is another data set of the same source.
The next series has as its system HSV-1 KOS wt strain. Briefly: HSV-1 KOS wt virus yield reduction in nervous cell lines (plaque assay). Type of series: cell-based, herpes simplex virus type 1. Conditions: SH-SY5Y cells, m.o.i. 1, 5 μM compound 2, 24 h. On the procedure:
as §1
Neuro-2a, PC-12, and SH-SY5Y cells grown in 24-well plates were infected with HSV-1 KOS wt strain at m.o.i. of 1. After 24 h of incubation at 37°C, supernatants were collected and titrated in Vero cells.
Figure 3 Effect of compounds 1 and 2 on HSV-1 virus yield reduction. (a) PC-12, (b) Neuro-2a, and (c) SH-SY5Y cells were infected with HSV-1 KOS (black bars) and HSV-1 Cgal (grey bars) and incubated for 1 h at 37°C. Then, cells were covered with DMEM/F12 2% or media containing 10 μM of compound 1 and 5 μM of compound 2. After 24 h supernatants were harvested and viral titres were determined by plaque assay. Bars show average of two replicates ± SD. *P < 0.05, with respect to untreated infected cells.

Broadly, the CC50 is the concentration that lowers cell viability or growth by half. For `CC[C@@H](C(C)C)[C@H](O)[C@@H](O)[C@@H](C)[C@H]1CC[C@H]2[C@@H]3CCC4=CC(=O)CC[C@]4(C)[C@H]3CC[C@]12C` [Compound 1, (22S,23S)-22,23-dihydroxystigmast-4-en-3-one], the CC50 in the series on IOBA-NHC cells is 71.2 µM. Also, in the series on HSV-1 Cgal [1], the “reduction in viral yields” value is listed as 1-2 log. Besides, the midpoint of cytotoxicity in series [2], the CC50 at 24 h, lay at 77.2 µM. The compound also displayed a cytotoxic concentration (CC50) at 24 h in [3] of over 144 µM. Besides, in series [4], the “induction of glucocorticoid activity via GR activation” value was “none of them was able to”. The “effect on IL-6 levels” value in the series on IL-6 [5] is “does not reduce”. In the series with TNF-α, the “effect on TNF-α levels” value was “does not reduce”. In addition, the “HSV-1 Cgal propagation (β-gal stained cells)” value in the series on HSV-1 Cgal [6] is “only scattered stained cells”. Also, in the series on IL-6 [7], the “IL-6 levels, reduction” value was found to be 46.2% and the IL-6 levels is 355.4 ± 10.9 pg/mL. Moreover, in the series on IFN-γ, the “IFN-γ levels, drop with respect to untreated infected cells” value amounted to 53.3% and the IFN-γ levels worked out at 72.3 ± 4.9 pg/mL. The compound also yielded a CC50 at 24 h in series [8] of 80.4 µM. The “binding to glucocorticoid receptors (GR)” value in series [9] is recorded as “none of them was able to bind”.
With `CC[C@@H](C(C)C)[C@H](O)[C@@H](O)[C@@H](C)[C@H]1CC[C@H]2[C@@H]3CC(=O)[C@@]4(O)C[C@@H](Br)CC[C@]4(C)[C@H]3CC[C@]12C` [Compound 2, (22S,23S)-3β-bromo-5α,22,23-trihydroxystigmastan-6-one], the half-maximal cytotoxic concentration (CC50) with IOBA-NHC cells is over 277 µM. Besides, the “reduction in viral yields” value with HSV-1 Cgal [1] is given as 1-2 log. Further, the cytotoxic concentration (CC50) at 24 h was 70 µM in series [2], over 129 µM in series [3] and 65.2 µM in [8]. Moreover, the “induction of glucocorticoid activity via GR activation” value in series [4] is given as “none of them was able to”. In the series with IL-6 [5], the “effect on IL-6 levels” value was “increases”. Further, the “inhibition of HSV-1 yield” value in the series on HSV-1 KOS wt strain is about 2 logs. Moreover, the “effect on TNF-α levels” value with TNF-α was “inhibits”. The “HSV-1 Cgal propagation (β-gal stained cells)” value in the series on HSV-1 Cgal [6] is given as “only scattered stained cells”. The “IL-6 levels, reduction” value in the series on IL-6 [7] is listed as 41.1%. In addition, in the series on IL-6 [7], the IL-6 levels was 388.2 ± 11.4 pg/mL. For the same compound, in the series with IFN-γ, the “IFN-γ levels, drop with respect to untreated infected cells” value is listed as 65.7%. In the series with IFN-γ, this compound gave an IFN-γ levels of 53 ± 4.2 pg/mL. Besides, the “binding to glucocorticoid receptors (GR)” value in series [9] is reported as “none of them was able to bind”.

Values taken from publication PMC4131461, “Antiviral Action of Synthetic Stigmasterol Derivatives on Herpes Simplex Virus Replication in Nervous Cells In Vitro” (BioMed Research International, 2014).
